The source of these data is patent publication US10239933B2, “Compositions and methods for modulating thrombin generation” (The Children's Hospital of Philadelphia, priority 2011, dated 2019).

In one assay the target is T1, plasma-derived Factor V (Homo sapiens, UniProt P12259).
T1 construct: from tissue; host or cells: plasma
Briefly: Proteolytic activation of Factor V by thrombin (SDS-PAGE). It is filed as biochemical. The following applies: presence of FVBR. Here is the method:
Plasma-derived Factor V was incubated with thrombin in the presence or absence of FVBR peptide. Samples were removed and quenched in sample buffer at the indicated times, and the cleavage products were analyzed by SDS-PAGE and Coomassie Brilliant Blue staining.

The target in the next assay is T2, FXa/FVa (Homo sapiens, UniProt P12259).
T2 construct: thrombin rapidly cleaves Factor V at Arg709 to produce heavy chain (HC); rapidly cleaves at Arg1018 and Arg1545 to produce light chain (LC); made in house
T2 sequence (P12259 29-737 limits assumed): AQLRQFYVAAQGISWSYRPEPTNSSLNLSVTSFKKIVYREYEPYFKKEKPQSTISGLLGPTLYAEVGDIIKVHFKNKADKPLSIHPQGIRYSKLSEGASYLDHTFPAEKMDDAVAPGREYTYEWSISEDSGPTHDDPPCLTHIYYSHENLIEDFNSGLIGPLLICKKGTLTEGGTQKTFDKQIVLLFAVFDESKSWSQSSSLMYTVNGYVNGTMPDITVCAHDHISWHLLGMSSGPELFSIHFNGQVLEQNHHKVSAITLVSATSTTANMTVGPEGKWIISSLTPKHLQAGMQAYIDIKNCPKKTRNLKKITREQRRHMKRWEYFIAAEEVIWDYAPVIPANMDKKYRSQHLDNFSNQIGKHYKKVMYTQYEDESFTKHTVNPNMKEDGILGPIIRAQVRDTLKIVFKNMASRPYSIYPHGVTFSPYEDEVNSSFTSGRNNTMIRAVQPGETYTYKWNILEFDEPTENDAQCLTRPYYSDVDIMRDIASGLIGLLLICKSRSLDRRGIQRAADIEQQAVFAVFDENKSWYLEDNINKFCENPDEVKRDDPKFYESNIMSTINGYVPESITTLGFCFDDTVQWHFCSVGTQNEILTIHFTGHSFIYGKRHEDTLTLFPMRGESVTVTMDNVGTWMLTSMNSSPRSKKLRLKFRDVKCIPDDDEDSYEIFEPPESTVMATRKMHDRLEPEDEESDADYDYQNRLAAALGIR
T2 sequence (P12259 1574-2224 limits assumed): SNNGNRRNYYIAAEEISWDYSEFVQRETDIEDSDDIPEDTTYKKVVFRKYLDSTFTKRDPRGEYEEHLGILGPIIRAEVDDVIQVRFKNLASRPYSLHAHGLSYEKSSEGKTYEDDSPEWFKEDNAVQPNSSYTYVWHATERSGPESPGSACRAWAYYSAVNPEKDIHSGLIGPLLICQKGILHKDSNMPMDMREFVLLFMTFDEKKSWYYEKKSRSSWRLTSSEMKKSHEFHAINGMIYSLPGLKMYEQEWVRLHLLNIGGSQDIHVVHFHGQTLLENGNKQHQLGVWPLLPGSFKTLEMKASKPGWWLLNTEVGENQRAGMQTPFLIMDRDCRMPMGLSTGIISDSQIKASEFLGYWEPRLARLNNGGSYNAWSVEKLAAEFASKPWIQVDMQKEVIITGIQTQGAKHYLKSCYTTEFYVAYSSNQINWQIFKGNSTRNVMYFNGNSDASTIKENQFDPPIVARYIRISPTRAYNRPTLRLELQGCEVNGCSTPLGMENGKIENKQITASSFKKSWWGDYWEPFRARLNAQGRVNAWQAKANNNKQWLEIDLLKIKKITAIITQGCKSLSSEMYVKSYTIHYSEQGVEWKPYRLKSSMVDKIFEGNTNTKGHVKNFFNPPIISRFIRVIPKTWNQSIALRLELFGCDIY
Briefly: Prothrombin activation assay, FXa/FVa. The assay is classed as biochemical. As to the method: Steady-state initial velocities of prothrombin cleavage were determined discontinuously at 25° C. by measuring the initial rate of thrombin formation. Reaction mixtures contained liposomes (75:25, PC:PS), prothrombin, the indicated Factor V variants, and the Factor V peptides FVBR or s46. The reactions were initiated by adding Factor Xa, and thrombin generation was determined at multiple time points by monitoring the cleavage of the chromogenic thrombin substrate S-2238.
Steady-state initial velocities of prothrombin cleavage were determined discontinuously at 25° C. as described (Camire, R. M. (2002) J. Biol. Chem., 277:37863-37870). Reaction mixtures containing PCPS (50 μM), DAPA (3 μM), prothrombin (1.4 μM), and either rFVa or the indicated FV-810 derivatives were incubated with B-domain peptides (0-10 μM) in assay buffer. […] Prothrombin activation was determined using the chromogenic thrombin substrate 52238 as described (Camire, R. M. (2002) J. Biol. Chem., 277:37863-37870).

For another assay, the target named is T3, FV-810^QQ (Homo sapiens, UniProt P12259, DEL839-1519/R1573Q/R737Q).
T3 construct: amino acids 1-28 are a signal peptide that is cleaved and numbering begins at residue 29; made in house
T3 sequence (P12259 with tags, fused parts or gaps R737Q/DEL839-1519/R1573Q): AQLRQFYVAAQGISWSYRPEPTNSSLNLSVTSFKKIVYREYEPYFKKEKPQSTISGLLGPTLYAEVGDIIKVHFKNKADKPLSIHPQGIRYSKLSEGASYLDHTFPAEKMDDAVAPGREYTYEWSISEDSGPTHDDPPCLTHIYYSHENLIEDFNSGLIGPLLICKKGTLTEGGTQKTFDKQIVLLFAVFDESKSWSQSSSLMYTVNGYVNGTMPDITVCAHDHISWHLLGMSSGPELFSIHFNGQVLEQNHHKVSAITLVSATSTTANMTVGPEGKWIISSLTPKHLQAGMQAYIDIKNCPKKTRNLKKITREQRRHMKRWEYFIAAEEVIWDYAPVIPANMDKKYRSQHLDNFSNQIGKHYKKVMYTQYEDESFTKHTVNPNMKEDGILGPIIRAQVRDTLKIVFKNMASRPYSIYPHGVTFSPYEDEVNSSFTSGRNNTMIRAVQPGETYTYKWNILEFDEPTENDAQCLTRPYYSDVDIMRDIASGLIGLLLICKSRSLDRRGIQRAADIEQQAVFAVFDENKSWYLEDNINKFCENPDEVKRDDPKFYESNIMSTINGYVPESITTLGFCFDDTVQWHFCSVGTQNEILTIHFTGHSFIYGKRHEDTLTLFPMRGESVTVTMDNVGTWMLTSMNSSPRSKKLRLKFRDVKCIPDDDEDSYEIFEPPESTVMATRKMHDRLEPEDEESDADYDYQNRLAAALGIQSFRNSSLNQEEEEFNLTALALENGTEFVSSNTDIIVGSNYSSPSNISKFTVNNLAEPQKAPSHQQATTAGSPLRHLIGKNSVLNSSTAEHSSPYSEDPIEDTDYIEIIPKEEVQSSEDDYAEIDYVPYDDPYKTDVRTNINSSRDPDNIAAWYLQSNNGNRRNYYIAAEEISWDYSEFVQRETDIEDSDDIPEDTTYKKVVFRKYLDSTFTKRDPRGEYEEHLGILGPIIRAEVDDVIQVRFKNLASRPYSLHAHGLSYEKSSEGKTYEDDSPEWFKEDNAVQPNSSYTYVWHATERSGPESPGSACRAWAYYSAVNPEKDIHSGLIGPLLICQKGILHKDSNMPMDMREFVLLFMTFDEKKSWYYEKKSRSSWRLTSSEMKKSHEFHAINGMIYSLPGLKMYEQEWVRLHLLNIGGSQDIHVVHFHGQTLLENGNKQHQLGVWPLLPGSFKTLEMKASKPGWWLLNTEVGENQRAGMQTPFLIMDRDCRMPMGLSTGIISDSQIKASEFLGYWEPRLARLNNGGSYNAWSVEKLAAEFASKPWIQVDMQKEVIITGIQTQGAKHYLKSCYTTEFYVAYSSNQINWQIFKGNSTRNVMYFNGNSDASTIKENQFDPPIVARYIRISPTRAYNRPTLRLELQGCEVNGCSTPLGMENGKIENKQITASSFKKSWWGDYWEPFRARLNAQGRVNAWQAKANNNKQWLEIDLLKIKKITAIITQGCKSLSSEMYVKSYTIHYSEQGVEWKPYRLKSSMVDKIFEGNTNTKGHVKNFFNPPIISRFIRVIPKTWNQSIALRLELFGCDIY
Briefly: Clotting assay with FV-810^QQ. It is filed as biochemical. As to the method: Residual clotting activity of Factor V variants was determined by prothrombin time-based clotting assays. Factor V variants were incubated with either the FVBR or s46 peptide, after which the mixtures were mixed with Factor V deficient plasma and clotting times were measured. Where indicated, the Factor V variants were activated by pre-incubation with thrombin prior to addition of the peptides.
FV derivatives (500 nM) were prepared in assay buffer. Where noted, FV derivatives were pretreated with 10 nM thrombin for 15 minutes at 37° C., followed by the addition of 15 nM hirudin. Samples were diluted to 0.25 nM in assay buffer with 0.1% BSA, and the specific clotting activity was measured in FV-deficient plasma (George King Bio-Medical, Overland Park, Kans.) with TriniCLOT PT Excel (Tcoag, Wicklow, Ireland) as described (Camire et al. (1998) Biochemistry 37:11896-11906). The data are presented as the means±S.D.

Another assay has as its target T4, FXa/FV-DT (Homo sapiens, UniProt P12259, DEL839-1519).
T4 construct: amino acids 1-28 are a signal peptide that is cleaved and numbering begins at residue 29; made in house
Briefly: Binding of fluorescently labeled FXa to FV-DT on liposomes (anisotropy). Conditions: on PCPS liposomes.

The target of assay [1] is T5, FV-810 (Homo sapiens, UniProt P12259, DEL839-1519).
T5 construct: amino acids 1-28 are a signal peptide that is cleaved and numbering begins at residue 29; made in house
T5 sequence (P12259 with tags, fused parts or gaps DEL839-1519): as the sequence (P12259 with tags, fused parts or gaps R737Q/DEL839-1519/R1573Q) above, with Q709R, Q864R counted along it
The experiment in a line: Fluorescence anisotropy, direct binding of OG488-BR to FV-810. The following applies: fluorescently labeled FVBR. (Fluorescence polarisation rises when a labelled molecule tumbles more slowly, as on binding a larger partner.)

Assay [2] concerns the target T5, FV-810. Briefly: Prethrombin-2 activation, competition of BR and FXa for FV-810. The assay is classed as biochemical. The following applies: read-out: Kd for FV-810 from prethrombin-2 activation, model for tight binding.
[3] abbreviates: listed as FV basic region peptide.

“Also recorded” adds a separate entry of the source. Like-named read-outs stand apart in the source and are kept apart here. Ends that are not written are not given here.

T1 sequence (P12259 29-2224): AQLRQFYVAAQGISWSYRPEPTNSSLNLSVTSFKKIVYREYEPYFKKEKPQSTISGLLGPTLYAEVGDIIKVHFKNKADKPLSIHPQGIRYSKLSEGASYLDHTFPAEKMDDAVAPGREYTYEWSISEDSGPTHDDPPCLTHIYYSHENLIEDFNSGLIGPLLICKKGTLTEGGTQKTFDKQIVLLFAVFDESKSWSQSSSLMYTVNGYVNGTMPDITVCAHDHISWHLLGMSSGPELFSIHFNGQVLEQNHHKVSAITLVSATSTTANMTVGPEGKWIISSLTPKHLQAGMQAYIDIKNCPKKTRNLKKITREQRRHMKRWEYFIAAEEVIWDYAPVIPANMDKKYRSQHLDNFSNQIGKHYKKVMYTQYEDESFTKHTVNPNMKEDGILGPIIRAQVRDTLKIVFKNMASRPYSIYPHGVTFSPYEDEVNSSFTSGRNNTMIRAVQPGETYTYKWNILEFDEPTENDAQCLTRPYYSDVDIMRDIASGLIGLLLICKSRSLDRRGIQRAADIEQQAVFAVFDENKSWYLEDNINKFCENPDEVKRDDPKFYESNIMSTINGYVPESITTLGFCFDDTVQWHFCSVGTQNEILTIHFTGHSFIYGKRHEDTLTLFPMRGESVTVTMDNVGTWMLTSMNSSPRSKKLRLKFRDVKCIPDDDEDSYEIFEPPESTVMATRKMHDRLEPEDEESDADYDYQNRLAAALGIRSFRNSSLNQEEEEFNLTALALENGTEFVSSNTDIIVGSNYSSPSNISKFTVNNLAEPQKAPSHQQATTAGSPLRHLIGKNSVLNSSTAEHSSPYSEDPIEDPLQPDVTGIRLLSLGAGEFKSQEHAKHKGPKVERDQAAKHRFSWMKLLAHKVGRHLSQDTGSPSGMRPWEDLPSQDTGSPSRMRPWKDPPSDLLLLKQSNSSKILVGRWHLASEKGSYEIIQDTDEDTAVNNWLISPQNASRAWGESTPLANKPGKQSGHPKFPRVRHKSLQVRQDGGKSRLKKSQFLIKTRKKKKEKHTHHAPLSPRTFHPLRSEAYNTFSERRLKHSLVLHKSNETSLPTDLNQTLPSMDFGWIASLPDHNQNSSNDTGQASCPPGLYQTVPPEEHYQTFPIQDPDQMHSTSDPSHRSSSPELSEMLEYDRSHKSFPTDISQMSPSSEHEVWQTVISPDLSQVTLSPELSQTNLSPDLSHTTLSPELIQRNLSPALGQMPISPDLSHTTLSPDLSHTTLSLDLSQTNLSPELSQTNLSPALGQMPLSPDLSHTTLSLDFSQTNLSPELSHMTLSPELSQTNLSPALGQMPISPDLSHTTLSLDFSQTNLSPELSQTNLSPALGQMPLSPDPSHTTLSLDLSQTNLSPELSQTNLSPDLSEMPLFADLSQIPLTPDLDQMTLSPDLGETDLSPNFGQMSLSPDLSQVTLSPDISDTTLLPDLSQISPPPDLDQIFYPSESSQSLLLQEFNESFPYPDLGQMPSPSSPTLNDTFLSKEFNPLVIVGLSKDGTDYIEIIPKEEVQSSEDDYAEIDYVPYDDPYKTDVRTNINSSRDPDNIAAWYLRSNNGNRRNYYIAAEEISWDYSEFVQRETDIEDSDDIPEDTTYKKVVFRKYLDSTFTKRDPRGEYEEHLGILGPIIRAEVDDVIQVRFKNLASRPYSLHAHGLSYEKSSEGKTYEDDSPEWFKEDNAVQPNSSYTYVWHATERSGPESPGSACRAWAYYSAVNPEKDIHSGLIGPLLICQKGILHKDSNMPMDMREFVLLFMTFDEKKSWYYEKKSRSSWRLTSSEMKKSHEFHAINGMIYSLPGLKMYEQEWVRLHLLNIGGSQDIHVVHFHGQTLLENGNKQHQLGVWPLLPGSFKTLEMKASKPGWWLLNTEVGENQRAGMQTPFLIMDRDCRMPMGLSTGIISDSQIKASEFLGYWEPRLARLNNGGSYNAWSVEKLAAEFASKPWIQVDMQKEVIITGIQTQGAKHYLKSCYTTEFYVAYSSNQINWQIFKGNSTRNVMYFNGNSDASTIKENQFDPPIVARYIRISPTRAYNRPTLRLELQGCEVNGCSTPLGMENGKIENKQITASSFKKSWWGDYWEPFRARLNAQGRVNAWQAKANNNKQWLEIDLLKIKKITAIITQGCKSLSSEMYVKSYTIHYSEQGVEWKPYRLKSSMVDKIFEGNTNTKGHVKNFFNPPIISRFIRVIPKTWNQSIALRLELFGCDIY
T4 sequence (P12259 with tags, fused parts or gaps DEL839-1519): as the sequence (P12259 with tags, fused parts or gaps R737Q/DEL839-1519/R1573Q) above, with Q709R, Q864R counted along it

On to “SRAWGESTPLANKPGKQSGHPKFPRVRHKSLQVRQDGGKSRLKKSQFLIKTRKKKKEK [FVBR]”, for which the “proteolytic activation of FV by thrombin, cleavage at Arg1545” value at plasma-derived Factor V is reported as “delays the proteolytic activation; also recorded: delayed cleavage”. Also, the “thrombin cleavage of FV at Arg709” value at plasma-derived Factor V is on record as “proceeds normally”. For the same sequence, the “effect on prothrombin activation by FXa/FVa” value on FXa/FVa is “did not affect”; on FXa/FVa (listed as BR peptide), “no inhibitory effect”. Further, the “inhibition of FV-810^QQ” value against FV-810^QQ (following incubation with thrombin) is recorded as “still inhibited”; on FV-810^QQ (prior to thrombin cleavage), “potently inhibited”. In addition, the results for the “disruption of FXa binding to FV-DT” value at FXa/FV-DT and at FXa/FV-DT (setting [3]) were “impaired” and “disrupts binding”, respectively. Moreover, the “direct binding to FVDT” value is given as “direct binding” on FV-810 [1] and “binds FVDT” on FV-810 [1] (setting [3]). Further, the Kd (usually the free concentration of one partner at which half of the binding sites on the other are occupied at equilibrium, for simple one-to-one binding) at FV-810 [2] turned out to be 0.0342 ± 0.0036 µM.
